Data reported in patent US20170064957A1, “ACTIVE COMPOUND COMBINATIONS HAVING IN[…]” (BAYER CROPSCIENCE AKTIENGESELLSCHAFT, priority 2014, published 2017).

Assays:
Type in all cases: in vivo
[1] = test system: larvae of the cotton boll worm (Heliothis armigera); assay: Heliothis armigera - spray test; settings: cotton plants
Text: (§1) The expected activity for a given combination of two active compounds can be calculated according to S. R. Colby, Weeds 15 (1967), 20-22 as follows: • If • X is the kill rate, expressed in % of the untreated control, when active compound A is applied at an application rate of m g/ha or at a concentration of m ppm, • Y is the kill rate, expressed in % of the untreated control, when active compound B is applied at an application rate of n g/ha or at a concentration of n ppm and • E is the kill rate, expressed in % of the untreated control, when active compounds A and B is applied at application rates of m and n g/ha or at a concentration of m and n ppm, • then
Heliothis armigera—Spray Test
(§2) Solvent: 7 parts by weight of dimethylformamide Emulsifier: alkylaryl polyglycol ether
(§3) To produce a suitable preparation of active compound, 1 part by weight of active compound is mixed with the stated amount of solvent and is diluted with water, containing an emulsifier concentration of 1000 ppm, to the desired concentration. Further test concentrations are prepared by dilution with emulsifier containing water. Ammonium salt and/or penetration enhancer in a dosage of 1000 ppm are added to the desired concentration if necessary.
Cotton plants (Gossypium hirsutum) are treated by being sprayed with the preparation of the active compound of the desired concentration and are infested with larvae of the cotton boll worm (Heliothis armigera).
After the specified period of time, the mortality in % is determined. 100% means all caterpillars have been killed; 0% means none of the caterpillars have been killed. The mortality values determined thus are recalculated using the Colby-formula (see sheet 1).

[2] = test system: mustard beetle larvae (Phaedon cochleariae); assay: Phaedon cochleariae - spray test; settings: Chinese cabbage leaf disks
Text: as §1
Phaedon cochleariae—Spray Test
(§4) To produce a suitable preparation of active compound, 1 part by weight of active compound is mixed with the stated amount of solvents and is diluted with water, containing an emulsifier concentration of 1000 ppm, to the desired concentration. To produce a suitable preparation of a spore suspension the spores are diluted with emulsifier containing water to the desired concentration. Further test concentrations are prepared by dilution with emulsifier containing water.
Chinese cabbage (Brassica pekinensis) leaf disks are sprayed with a preparation of the active ingredient of the desired concentration. Once dry, the leaf disks are infested with mustard beetle larvae (Phaedon cochleariae).
After the specified period of time, mortality in % is determined. 100% means all beetle larvae have been killed and 0% means none of the beetle larvae have been killed. The mortality values determined thus are recalculated using the Colby-formula (see sheet 1).

[3] = test system: caterpillars of the fall army worm (Spodoptera frugiperda); assay: Spodoptera frugiperda - spray test; settings: 0.1 ppm, cotton leaves
Text: as §1
Spodoptera frugiperda—Spray Test
as §2
as §3, with “added” for “added to the desired concentration”
Cotton leaves (Gossypium hirsutum) are treated by being sprayed with the preparation of the active compound of the desired concentration and are infested with caterpillars of the fall army worm (Spodoptera frugiperda).
After the specified period of time mortality in % is determined. 100% means all the caterpillars have been killed and 0% means none of the caterpillars have been killed. The mortality values determined thus are recalculated using the Colby-formula (see sheet 1).

[4] = test system: two spotted spidermite (Tetranychus urticae); assay: Tetranychus urticae - spray test OP-resistant; settings: French bean leaf disks
Text: as §1
Tetranvchus Urticae—Spray Test OP-Resistant
as §4
French bean (Phaseolus vulgaris) leaf disks which are heavily infested with all stages of the two spotted spidermite (Tetranychus urticae), are sprayed with a preparation of the active ingredient of the desired concentration.
After the specified period of time, mortality in % is determined. 100% means all spider mites have been killed and 0% means none of the spider mites have been killed. The mortality values determined thus are recalculated using the Colby-formula (see sheet 1).

Compound: Cc1cc(C(F)(C(F)(F)F)C(F)(F)F)ccc1NC(=O)c1cccc(Cl)c1C(=O)NC(C)(C)C#N [Compound of formula (II-6)]
- Efficacy in % after 2d ([1]; 0.1 ppm): 20%
- Efficacy in % after 2d ([1]; 0.2 ppm): 50%
- Efficacy in % after 1d ([1]; 0.4 ppm, 1 d): 30%
- Efficacy in % after 2d ([1]; 0.4 ppm): 60%

Compound: CNC(=O)c1cc(Cl)cc(C)c1NC(=O)c1cc(Br)nn1-c1ncccc1Cl [Chlorantraniliprole]
- Efficacy in % after 6d ([2]; 0.16 g ai/ha): 0%

Compound: CNC(=O)c1cc(C#N)cc(C)c1NC(=O)c1cc(Cn2nnc(C(F)(F)F)n2)nn1-c1ncccc1Cl [(II-2), 1-(3-chloropyridin-2-yl)-N-[4-cyano-2-methyl-6-(methylcarbamoyl)phenyl]-3-{[5-(trifluoromethyl)-2H-tetrazol-2-yl]methyl}-1H-pyrazole-5-carboxamide]
- Efficacy in % after 6d ([2]; 0.0064 g ai/ha): 0%
- Efficacy in % after 6d ([2]; 0.032 g ai/ha): 33%

Compound: CNC(=O)c1cc(C#N)cc(C)c1NC(=O)c1cc(Br)nn1-c1ncccc1Cl [Cyantraniliprole]
- Efficacy in % after 6d ([1]; 0.15 ppm, 6 d): 50%

Compound: Cc1cc(C(F)(C(F)(F)F)C(F)(F)F)ccc1NC(=O)c1cccc(I)c1C(=O)NC(C)(C)CS(C)(=O)=O [Flubendiamide]
- Efficacy in % after 1d ([3]; 1 d): 0%
- Efficacy in % after 2d ([3]; 2 d): 0%
- Efficacy in % after 3d ([3]; 3 d): 0%
- Efficacy in % after 2d ([4]; 0.8 g ai/ha): 0%
- Efficacy in % after 6d ([4]; 0.8 g ai/ha, 6 d): 0%
- Efficacy in % after 2d ([4]; 4 g ai/ha): 0%
